Source: ChEMBL document CHEMBL1201862, “PubChem BioAssay data set” (2004)
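Method: 48-hour compound exposure of cells in 96-well plates, five concentrations, linear interpolation of endpoints. The concentration for 50% growth inhibition is given as GI50.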 The source made the active and inactive calls. Cut-off read from the data, not from the text of the source: active = GI50 up to about 1.1 µM and inactive = higher.

Key:
Test in all cases: growth of human tumour cells (NCI), 48 h
[1] = test system: NCI-H460
[2] = test system: SN12C
[3] = test system: MDA-N
[4] = test system: Hs-578T
[5] = test system: HOP-62
[6] = test system: 786-0
[7] = test system: UACC-62
[8] = test system: A549
[9] = test system: HOP-92
[10] = test system: K562
[11] = test system: SF-295
[12] = test system: SW-620
[13] = test system: SK-MEL-28
[14] = test system: MOLT-4
[15] = test system: HT-29
[16] = test system: SK-MEL-2
[17] = test system: TK-10
[18] = test system: OVCAR-8
[19] = test system: MCF7
[20] = test system: A498

Measured: GI50

OC(COc1cccc2ccccc12)CN1CCOCC1 (stereo unspecified)
inactive: [1] > 100 µM | [2] > 100 µM | [3] > 100 µM | [4] 75.5 µM | [5] > 100 µM | [6] > 100 µM | [7] > 100 µM | [8] > 100 µM | [9] 22.2 µM | [10] > 100 µM | [11] > 100 µM | [12] > 100 µM | [13] > 100 µM | [14] 44.6 µM | [15] > 100 µM | [16] > 100 µM | [17] > 100 µM | [18] > 100 µM | [19] > 100 µM | [20] > 100 µM

Cc1n[nH]c(=O)n1/N=C/c1cccnc1
inactive: [1] > 100 µM | [2] > 100 µM | [3] > 100 µM | [4] > 100 µM | [5] > 100 µM | [6] > 100 µM | [7] > 100 µM | [8] > 100 µM | [9] 33.4 µM | [10] > 100 µM | [11] > 100 µM | [12] > 100 µM | [13] > 100 µM | [14] > 100 µM | [15] > 100 µM | [16] > 100 µM | [17] > 100 µM | [18] > 100 µM | [19] > 100 µM | [20] > 100 µM

Cc1ccc(-c2nc3cc(F)c(N4CCN(C)CC4)cc3[nH]2)cc1
inactive: [1] 16.9 µM | [2] 54.1 µM | [3] 32.4 µM | [4] 10.7 µM | [5] 15.8 µM | [6] 17.6 µM | [7] 16.3 µM | [8] 19.1 µM | [9] 66.5 µM | [10] 16.4 µM | [11] 16.6 µM | [12] 37.1 µM | [13] 26.2 µM | [14] 22.8 µM | [16] 17.1 µM | [17] 22.2 µM | [19] 15.3 µM | [20] 32.7 µM

N=C(N)NCCCC(NCc1c2ccccc2nc2ccccc12)C(=O)O (stereo unspecified)
inactive: [1] 36.1 µM | [2] 39.2 µM | [3] 37.2 µM | [4] 69.7 µM | [5] 37.1 µM | [6] 31.3 µM | [7] 31.3 µM | [8] 37.2 µM | [9] 7.93 µM | [10] 10.1 µM | [11] 48 µM | [12] 25.5 µM | [13] > 66.7 µM | [14] 8 µM | [15] 18.9 µM | [16] 41 µM | [17] 49.5 µM | [18] 25.7 µM | [19] 32 µM | [20] > 100 µM

CN(C)CCNC1=Nc2ccccc2C(=O)N2CSCC12 (stereo unspecified)
inactive: [1] > 100 µM | [2] > 100 µM | [3] > 100 µM | [4] > 100 µM | [5] > 100 µM | [6] > 100 µM | [7] > 100 µM | [8] > 100 µM | [10] > 100 µM | [11] > 100 µM | [12] > 100 µM | [13] > 100 µM | [14] > 100 µM | [15] > 100 µM | [16] > 100 µM | [17] > 100 µM | [18] > 100 µM | [19] > 100 µM | [20] > 100 µM

C#CC1(O)CCCCCCCCC2(CCCCCCCC1)OCCO2
inactive: [1] 21.3 µM | [2] 17.4 µM | [3] 20.9 µM | [4] 17.8 µM | [5] 29.7 µM | [6] 17.6 µM | [7] 14.8 µM | [8] 13.9 µM | [9] 17.4 µM | [10] 17.5 µM | [11] 19.8 µM | [12] 18.8 µM | [13] 19.5 µM | [15] 18.3 µM | [16] 13.7 µM | [17] 20.7 µM | [18] 19.4 µM | [19] 20.3 µM | [20] 14.7 µM

O=C1c2ccccc2C(=O)c2sc(Nc3ccccc3C(F)(F)F)nc21
inactive: [1] 21.8 µM | [2] 32.6 µM | [3] 12.5 µM | [4] 11.9 µM | [5] 14 µM | [6] 16.4 µM | [7] 11.6 µM | [8] 21.2 µM | [9] 10.6 µM | [10] 3.01 µM | [11] 15.6 µM | [12] 6.1 µM | [13] 16.2 µM | [14] 3.45 µM | [16] 11.6 µM | [17] 19.7 µM | [19] 16.4 µM | [20] 15.3 µM

Cc1cc2c(cc1-c1cc3c(cc1C)C(C(C)C)=C(O)C(=O)/C3=C\Nc1nc(-c3ccccc3)cs1)/C(=C/Nc1nc(-c3ccccc3)cs1)C(=O)C(O)=C2C(C)C
inactive: [1] 18.2 µM | [2] 22.3 µM | [3] 41.1 µM | [4] 37.3 µM | [5] 15.2 µM | [6] 21.8 µM | [7] 16.7 µM | [8] 19.1 µM | [9] 18.8 µM | [10] 11.7 µM | [11] 15.6 µM | [12] 15.6 µM | [13] 16.8 µM | [14] 35.7 µM | [15] 22.2 µM | [16] 21 µM | [18] 25.6 µM | [19] 18.1 µM | [20] 35.6 µM

CC1=NN(c2cccc(Cl)c2)C2(SCC(=O)N2c2nc3ccccc3s2)C1=CC=Cc1ccccc1 (stereo unspecified)
inactive: [1] 30.5 µM | [3] 34.1 µM | [4] 27.7 µM | [5] 36.1 µM | [6] 35.2 µM | [9] 17.7 µM | [10] 13.3 µM | [11] 35.2 µM | [12] 26.3 µM | [13] 34.4 µM | [14] 19.1 µM | [15] 30.1 µM | [16] 21.7 µM | [17] 62.4 µM | [18] 35.6 µM | [19] 25.5 µM | [20] 20.7 µM

CCCCCCCC(CC(=O)NC(CO)C(=O)NC(CO)CC(C)C)OC(=O)CC(CCCCCCC)OC(=O)CC(CCCCCCC)OC1OC(C)C(O)C(OC2OC(C)C(OC(C)=O)C(O)C2O)C1O (stereo unspecified)
inactive: [1] 3.97 µM | [2] 6.49 µM | [3] 3.4 µM | [4] 4.22 µM | [5] 17.1 µM | [6] 5.6 µM | [7] 6.34 µM | [8] 11.2 µM | [9] 8.91 µM | [10] 4.61 µM | [11] 12 µM | [12] 10.7 µM | [13] 6.64 µM | [14] 2.38 µM | [15] 3.41 µM | [17] 16.1 µM | [18] 9.27 µM | [19] 11.1 µM | [20] 11.3 µM

CCNC(=O)c1cc(Cl)ccc1NC(=O)C12CC3CC(CC(C3)C1)C2
inactive: [1] 34.3 µM | [2] 32.7 µM | [3] 22.5 µM | [4] > 100 µM | [5] 30.1 µM | [6] 22.8 µM | [8] 37.2 µM | [9] 30.4 µM | [10] 28.2 µM | [11] 52.1 µM | [12] 47.2 µM | [13] 35.8 µM | [14] 34.8 µM | [15] 18 µM | [16] 23.1 µM | [17] 52.8 µM | [18] 34.3 µM | [19] 39.1 µM | [20] > 100 µM

C/C=C(/C)C(=O)O[C@H]1[C@H]2[C@@H]([C@@H](OC(C)=O)[C@H](C)C(=O)[C@@]34C[C@@H](C)C(=O)[C@]3(/C=C(\C)[C@H]1OC(C)=O)O4)C2(C)C
inactive: [1] 1.31 µM | [2] 2.42 µM | [3] 1.27 µM | [4] 5.64 µM | [5] 3.15 µM | [6] 2.67 µM | [7] 3.35 µM | [9] 3.08 µM | [10] 2.6 µM | [11] 3.89 µM | [12] 3.39 µM | [14] 1.83 µM | [16] 4.27 µM | [17] 3.45 µM | [18] 3.48 µM | [19] 3.26 µM | [20] 4.75 µM

O=C(O)c1cccc2c1/C(=N/Nc1ccccc1)CC2
inactive: [1] 32.1 µM | [3] > 100 µM | [4] > 100 µM | [5] > 100 µM | [6] > 100 µM | [9] > 100 µM | [10] > 100 µM | [11] 17.2 µM | [12] > 100 µM | [13] > 100 µM | [14] > 100 µM | [15] > 100 µM | [16] 66.8 µM | [17] > 100 µM | [18] > 100 µM | [19] 45.1 µM | [20] > 100 µM

c1ccc2c(c1)c1c(n2CCOCCN2CCOCC2)CCCC1
inactive: [1] 27.5 µM | [2] > 10 µM | [3] 37.8 µM | [4] 57 µM | [5] 26.3 µM | [6] > 10 µM | [8] 45.2 µM | [9] 29.2 µM | [10] 33.6 µM | [11] 23.9 µM | [12] 34.1 µM | [13] 19.5 µM | [14] 25 µM | [15] 15.6 µM | [16] 24.2 µM | [17] 18.4 µM | [18] 36.7 µM | [19] 38.8 µM | [20] 34.1 µM
